# According to patent US20060088472A1, “E7 regulation of p21 cip1 through akt” (priority 2002, published 2006):
# Like-named read-outs stand apart in the source and are kept apart here. Residues, ends and D or L forms follow the SMILES beside them. *: point of attachment. Cbz = O=C(OCc1ccccc1)*
# T1: RB (retinoblastoma protein, endogenous, in lysate of RafAR-NIH3T3 control cells) (UniProt P13405 2-921)
# T1 sequence: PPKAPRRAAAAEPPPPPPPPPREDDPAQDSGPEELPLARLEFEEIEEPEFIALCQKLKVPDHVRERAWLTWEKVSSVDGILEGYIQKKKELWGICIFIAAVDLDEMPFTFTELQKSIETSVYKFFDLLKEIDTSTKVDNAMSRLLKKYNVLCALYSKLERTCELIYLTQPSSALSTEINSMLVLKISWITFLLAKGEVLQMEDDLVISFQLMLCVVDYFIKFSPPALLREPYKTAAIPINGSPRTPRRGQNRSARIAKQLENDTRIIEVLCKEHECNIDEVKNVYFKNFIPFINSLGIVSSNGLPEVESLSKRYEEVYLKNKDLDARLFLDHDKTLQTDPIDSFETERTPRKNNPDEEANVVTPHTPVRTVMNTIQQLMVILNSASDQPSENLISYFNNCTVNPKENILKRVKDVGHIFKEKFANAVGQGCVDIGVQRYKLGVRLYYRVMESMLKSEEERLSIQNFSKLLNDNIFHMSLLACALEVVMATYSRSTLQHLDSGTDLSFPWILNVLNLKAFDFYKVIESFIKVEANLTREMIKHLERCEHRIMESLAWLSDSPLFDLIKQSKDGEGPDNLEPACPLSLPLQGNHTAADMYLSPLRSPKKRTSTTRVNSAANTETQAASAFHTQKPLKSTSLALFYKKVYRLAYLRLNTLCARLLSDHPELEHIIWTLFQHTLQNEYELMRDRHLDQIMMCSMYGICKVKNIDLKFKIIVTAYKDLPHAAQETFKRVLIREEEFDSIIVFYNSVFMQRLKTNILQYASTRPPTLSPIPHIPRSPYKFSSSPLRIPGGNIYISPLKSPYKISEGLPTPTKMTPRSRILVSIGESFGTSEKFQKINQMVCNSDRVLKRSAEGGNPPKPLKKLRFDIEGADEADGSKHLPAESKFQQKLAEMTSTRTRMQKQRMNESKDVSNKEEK
# B1: p21^Cip1 (endogenous, in lysates of RafAR-expressing NIH3T3 cells) (other, UniProt P39689 2-159, looked up)
# chain: SNPGDVRPVPHRSKVCRCLFGPVDSEQLRRDCDALMAGCLQEARERWNFDFVTETPLEGNFVWERVRSLGLPKVYLSPGSRSRDDLGGDKRPSTSSALLQGPAPEDHVALSLSCTLVSERPEDSPGGPGTSQGRKRRQTSLTDFYHSKRRLVFCKRKP
# notes: also called p21^Cpi1
# How the values were obtained:
# [1] = tested on: Akt phosphorylated on serine 473 (P-Akt); format: cell-based, murine
# Method: The drugs and R1881 were added at 0 hr and the samples were taken at 6 hrs post-treatment.
# Immunoblotting and immunoprecipitations (IP). Cell pellets were lysed in HLB lysis buffer (50 mM Tris pH 8.0, 150 mM NaCl, 1% Triton X-100, 1 mM DTT, and protease inhibitor cocktail (Sigma P8340)) for 30 minutes with vortexing. After centrifugation, protein content was quantitated via a standard BioRad Bradford assay. For immunoblotting, 30-50 μg of cell lysate was separated by sodium dodecyl sulfate-polyacrylamide gel electrophoresis (SDS-PAGE) and transferred onto nitrocellulose membrane (Schleicher and Schuell). After incubation with primary and secondary antibodies, antigen detection was performed using the enhanced chemiluminescence kit from NEN. The following antibodies were obtained from Santa Cruz: α-cyclin D1 (sc-450, Western), α-cyclin D2 (sc-593, Western), α-cyclin E (sc-481, IP and Western), α-human cyclin E (sc-198, IP and Western), α-CDK2 (sc-163 g, IP and Western), α-CDK4 (sc-260, IP and Western), α-p21^Cip1 (sc-6246, Western), α-p21^Cip1 (sc-397, IP and immunofluorescence), and a-phospho-threonine (sc-5267, Western). HPV-16 E7-specific and RB-specific antibodies were purchased from Zymed and Pharmingen, respectively. Antibodies recognizing Akt or Akt phosphorylated at serine-473 were obtained from Cell Signaling. For immunoprecipitations, cell lysates were incubated with primary antibodies for 2 hours at 4° C., and immune-complexes were collected on Protein A-agarose beads (Santa Cruz) for an additional 1 hour. The complexes were washed four times with HLB buffer and resolved by 12% SDS-PAGE for immunoblotting.
# c-Raf-1 was induced by addition of the androgen analog R1881, as described herein and the cells harvested at various times thereafter.
# [2] = tested on: RafAR-expressing NIH3T3; assay: Cell morphology after RafAR activation in NIH3T3; format: cell-based, murine; conditions: RafAR activation with 1.0 μM R1881
# [3] = tested on: NIH3T3 cells stably expressing the RafAR fusion protein; assay: Cell cycle analysis (BrdU incorporation / propidium iodide) in RafAR-expressing NIH3T3 cells; format: cell-based, murine; conditions: control cells (Babe), RafAR activation with 1.0 μM R1881, 30 hours
# Method: (A) NIH3T3 cells stably expressing the RafAR fusion protein were infected with amphotrophic retroviruses expressing HPV-16 E7 (E7) or empty vector (Babe). Lysates were prepared and 100 μg of protein was resolved by 15% SDS-PAGE, transferred to nitrocellulose membrane, and probed with a monoclonal antibody directed against HPV-16 E7. (B and C) Pools of Babe- or E7-expressing cells growing in DMEM plus 10% NCS were treated with 0.02% ethanol (−) or 1.0 μM R1881 (+) for 30 hours and pulsed with BrdU for 30 minutes. Cells were trypsinized, fixed in 70% ethanol, and stained with propidium iodide (PI) for detection of total DNA content (B) and with α-BrdU-FITC for detection of DNA synthesis (C).
# (A) E7-expressing cells were treated for 30 hours with 1.0 μM R1881 in the absence or presence of increasing concentrations of LY294002 (50 μM, 100 μM, 200 μM), an inhibitor of PI-3K activity. DNA synthesis was measured via BrdU incorporation. (B) E7-expressing cells were treated with 1.0 uM R1881 in the presence or absence of 100 uM LY294002, stained with p21^Cip1-specific antibody, and quantitated for nuclear p21^Cip1 localization as in FIG. 7. […] Cells were stained with α-BrdU, and GFP-positive cells were scored for BrdU incorporation via indirect immunofluorescence. Percentages of BrdU incorporation were calculated by defining the number obtained from vehicle-treated cells as 100%. […]
# [4] = tested on: human foreskin keratinocytes (HFK); assay: Adriamycin DNA damage in control or E7-expressing HFK, Western blots for active Akt and p21^CIP; format: cell-based; conditions: 0.1 mM Adriamycin, 17 hours
# [5] = tested on: p27^Kip1 nuclear localization; assay: p27^Kip1 localization by immunofluorescence in TGF-β treated tet-E7 Mv1Lu cells; format: cell-based, mink; conditions: 3 ng/mL TGF-β, 24 hours, absence of E7
# Method: (A) Tet-E7 Mv1Lu cells were treated for 24 hours with 2 μg/mL doxycycline or vehicle. Cell lysates were analyzed by Western blotting with antibody specific for HPV16 E7. (B) Tet-E7 Mv1Lu cells were treated for 24 hours with 3 ng/mL TGF-β in the presence or absence of 2 μg/mL doxycycline and subsequently analyzed for p27^Kip1 expression via Western blot. (C, D) Tet-E7 Mv1Lu cells were treated as in (B), fixed with 3.7% paraformaldehyde, and stained with p27^Kip1 specific antibody as described in Materials and Methods. (C) Representative fluorescent (left panels) and phase contrast (right panels) micrographs of TGF-β treated cells in the absence (upper panels) or presence (lower panels) of doxycycline. […] The number of cells with nuclear p27^Kip1 accumulation is represented as a percentage of total cells counted. The average and deviation values shown are from two independent experiments with at least 200 cells counted per experiment.
# Cell culture. NIH3T3 cells stably expressing the RafAR fusion protein have been described previously (Sewing et al., 1997). This cell line and all derivatives were cultured in DMEM without phenol red (GIBCO-BRL) supplemented with 10% charcoal-stripped newborn calf serum (NCS, Hyclone). […]
# Immunofluorescence. […] Antigen staining was visualized by inverted fluorescence microscopy (Olympus CK40), and images were captured with Quality Imaging camera and software. […]
# [6] = biological target: T1, RB (retinoblastoma protein, endogenous, …); assay: GST pull-down from control cell lysate, Western blot
# [7] = biological target: B1; assay: as above
# [8] = biological target: cyclin E (endogenous, in lysates of RafAR-NIH3T3 cells) (UniProt Q61457 1-408); assay: cyclin E immunoprecipitation, p21^Cip1 Western blot
# [9] = drug added with R1881 at 0 hr, samples taken 6 hrs post-treatment
molecule,measurement,setting,value
CC(C)C[C@@H](C=O)NC(=O)[C@H](CC(C)C)NC(=O)[C@H](CC(C)C)NC(=O)OCc1ccccc1 [MG132] (Cbz-Leu-Leu-Leu-aldehyde),down-regulation of active Akt (P-Akt) on induction of c-Raf-1,[1]; [9],down-regulation of P-Akt was similar to control cells
"C[C@]1(O)CC[C@H]2[C@@H]3CCC4=CC(=O)CCC4=C3C=C[C@@]21C [R1881, methyltrienolone]",time post-treatment at which down-regulation of active Akt (P-Akt) is observed,[1]; c-Raf-1 induced by R1881,≤ 5 h
same,time post-treatment at which total Akt protein levels decrease,[1]; c-Raf-1 induced by R1881,19 to 26 h
same,cell morphology,[2],morphological changes including elongation and development of extended processes
same,DNA synthesis,[3],inhibition of DNA synthesis
same,cells accumulating in G1,[3],> 85%
N#CC(=C(/N)Sc1ccccc1N)/C(C#N)=C(\N)Sc1ccccc1N [U0126],basal level of active Akt,[1],increased
same,down-regulation of active Akt (P-Akt) on induction of c-Raf-1,[1],down-regulation is inhibited
COc1cccc2c1C(=O)c1c(O)c3c(c(O)c1C2=O)C[C@@](O)(C(=O)CO)C[C@@H]3O[C@H]1C[C@H](N)[C@H](O)[C@H](C)O1 [adriamycin],active Akt levels after adriamycin treatment,[4],maintained only in E7-expressing cells
same,p21^CIP levels after adriamycin treatment,[4],increased
C[C@@H]1C[C@@H]([C@H](O)CC2CC(=O)NC(=O)C2)C(=O)[C@@H](C)C1 [cyclohexamide],down-regulation of active Akt (P-Akt) on induction of c-Raf-1,[1]; [9],inhibited the down-regulation of Akt
TGF-β,nuclear accumulation of p27^Kip1,[5],robust nuclear accumulation
purified recombinant GST-E7 (HPV16 E7) (other) MHGDTPTLHEYMLDLQPETTDLYCYEQLNDSSEEEDEIDGPAGQAEPDRAHYNIVTFCCKCDSTLRLCVQSTHVDIRTLEDLLMGTLGIVCPICSQKP,binding result,[6],binds
same,binding result,[7],no binding
B1,binding result,[8],binds
